Measured values taken from ChEMBL document CHEMBL1201862, “PubChem BioAssay data set” (2004).
The source made the active and inactive calls.

Experiments:
Leucine aminopeptidase = biological target: T1, Leucine aminopeptidase (Plasmodium falciparum 3D7, UniProt Q8IL11); experiment: P. falciparum M17LAP inhibitors, primary screen, biochemical, fluorogenic H-Leu-NHMec substrate, 1536-well (AID 1619); format: functional
T1 sequence (Q8IL11 whole entry): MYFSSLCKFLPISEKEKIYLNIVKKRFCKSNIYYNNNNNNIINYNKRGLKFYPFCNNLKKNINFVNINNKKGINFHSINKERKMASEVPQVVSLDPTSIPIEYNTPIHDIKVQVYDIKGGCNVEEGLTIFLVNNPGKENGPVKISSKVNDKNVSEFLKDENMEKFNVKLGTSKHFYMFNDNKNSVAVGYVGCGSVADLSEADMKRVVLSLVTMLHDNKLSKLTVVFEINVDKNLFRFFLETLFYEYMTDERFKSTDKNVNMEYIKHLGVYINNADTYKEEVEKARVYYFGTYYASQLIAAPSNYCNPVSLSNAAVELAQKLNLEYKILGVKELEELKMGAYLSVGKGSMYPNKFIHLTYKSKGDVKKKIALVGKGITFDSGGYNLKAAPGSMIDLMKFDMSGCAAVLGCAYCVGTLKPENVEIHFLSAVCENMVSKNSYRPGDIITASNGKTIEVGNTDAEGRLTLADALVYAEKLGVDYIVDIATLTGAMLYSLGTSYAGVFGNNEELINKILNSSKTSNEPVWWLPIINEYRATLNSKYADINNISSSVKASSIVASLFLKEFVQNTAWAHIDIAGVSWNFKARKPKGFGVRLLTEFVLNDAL

[1] = biological target: T2, E3 ubiquitin-protein ligase XIAP (Homo sapiens, UniProt P98170); experiment: Counter Screen using XIAP-Bir3 for Chemical Antagonists of Bir1/2 domains of IAP-family anti-apoptotic proteins. [Related pubchem assays (depositor defined):AID1018, AID1449, AID1514, AID1638, AID1749, AID1750, AID488957, AID488963]
[2] = biological target: T2, E3 ubiquitin-protein ligase XIAP; experiment: XIAP antagonists, biochemical, IAP family, fluorescence polarization (AID 1018); format: functional
[3] = off-target signal loss in HeLa-CEM21 co-culture – HeLa F-luc CTL cells, cherry-picked, counter-screen for HIV-1 Env fusion inhibitor project, dose response (AID 652040); format: functional, cell-based;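 further: potency for signal decrease marking cytotoxic or nonspecific inhibition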
[4] = inhibitors of clade B AD8 Env fusion, dose response, cell-based, cherry-pick (AID 652062); format: functional;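 further: luciferase signal from cell-cell fusion driven by HIV-1 clade B AD8 Env; potency is for inhibitors of fusion seen as a drop in luminescence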
[5] = ZM109 Env clade C HIV-1 fusion inhibitors, dose response, HeLa effector, CEM target cells, luciferase, cherry-pick (AID 652058); format: functional, cell-based
[6] = inhibitors of HIV Env-driven cell fusion, dose response, cherry-pick (AID 652057); format: functional, cell-based
[7] = biological target: Voltage-dependent T-type calcium channel subunit alpha-1H (Homo sapiens, UniProt O95180); format: functional;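 further: channel activity triggered by adding a high calcium stimulation buffer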
Beta-lactamase [8] = biological target: Beta-lactamase (Salmonella choleraesuis (strain SC-B67), UniProt Q5J463); experiment: Epi-absorbance-based counterscreen for selective VIM-2 inhibitors: dose response biochemical high throughput screening assay to identify inhibitors of TEM-1 serine-beta-lactamase.
Beta-lactamase [9] = biological target: T3, Beta-lactamase (Pseudomonas aeruginosa, UniProt Q79MP6); experiment: IMP-1 metallo-beta-lactamase inhibitors, dose response, selectivity assay for VIM-2 inhibitor project, biochemical, epi-absorbance (AID 1920)
Beta-lactamase [10] = biological target: T3, Beta-lactamase; experiment: […] counterscreen for selective VIM-2 inhibitors: dose response biochemical high throughput screening assay to identify inhibitors of IMP-1 metallo-beta-lactamase.
[11] = biological target: Induced myeloid leukemia cell differentiation protein Mcl-1 (Homo sapiens, UniProt Q07820); format: functional
Large T antigen = Large T antigen (Simian virus 40, UniProt P03070); format: functional, Betapolyomavirus macacae;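 further: Confirmatory-stage PubChem screen for compounds that inhibit SV40 T antigen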
BJ [12] = experiment: cells; format: functional, cell-based; conditions: Homo sapiens
BJ [13] = experiment: cytotoxicity toward BJ-TERT-LT-ST fibroblasts, dose response, cell-based, RAS-independent, luminescence (AID 1935); format: functional; conditions: Homo sapiens;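 further: BJ fibroblasts immortalized with TERT plus LT and ST oncogenes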
BJ [14] = experiment: cytotoxicity toward BJ-TERT fibroblasts, dose response, cell-based, RAS-independent, luminescence (AID 1933); format: functional; conditions: Homo sapiens
[15] = cytotoxicity in HEK-293T cells, dose response, cytotoxicity control for TCR NF-kB inhibitor project, luminescence, T-cell screen hits (AID 489026); format: functional, cell-based;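 further: cells exposed to compound about 14 hours before the viability readout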
[16] = biological target: E3 ubiquitin-protein ligase Mdm2 (Homo sapiens, UniProt Q00987); experiment: enhancers of MDM2-luciferase reporter signal, concentration-effect titration, project on inhibitors of MDM2 ubiquitin ligase, cellular assay, luminescent readout, 384-well plate format (AID 1394); format: functional;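 further: MDM2 E3 inhibitors raise luminescence so EC50 is for signal enhancement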
[17] = cytotoxicity toward DRD oncogenic fibroblasts, dose response, cell-based, non-viral oncogenic, luminescence (AID 1934); format: functional; conditions: Homo sapiens
Nonstructural protein 1 = Nonstructural protein 1 (Influenza A virus, UniProt Q194T2); format: functional, Influenza A virus (A/California/07/2009(H1N1))
[18] = NIH-3T3 fibroblast cytotoxicity, dose response, cytotoxicity control, cell-based, fluorescence, Alamar Blue, secondary assay (AID 2327); format: functional;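 further: NIH-3T3 mouse fibroblasts cultured with fluconazole at 8 µg/mL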
[19] = A Cell Based Secondary Assay To Explore Cytotoxicity of Compounds that Sensitize Mycobacterium Tuberculosis to Beta-Lactam Antibiotics.; format: functional
[20] = C. albicans growth with fluconazole, confirmation, fluorescence, retest (AID 2467); format: functional, cell-based
[21] = biological target: T4, Carboxy-terminal domain RNA polymerase II polypeptide A small phosphatase 1 (Homo sapiens, UniProt Q9GZU7); experiment: inhibitors of CTDSP1, concentration-response testing, biochemical assay, absorbance-based, actives from ultra-high-throughput screening (AID 540297); format: functional
T4 sequence (Q9GZU7 whole entry): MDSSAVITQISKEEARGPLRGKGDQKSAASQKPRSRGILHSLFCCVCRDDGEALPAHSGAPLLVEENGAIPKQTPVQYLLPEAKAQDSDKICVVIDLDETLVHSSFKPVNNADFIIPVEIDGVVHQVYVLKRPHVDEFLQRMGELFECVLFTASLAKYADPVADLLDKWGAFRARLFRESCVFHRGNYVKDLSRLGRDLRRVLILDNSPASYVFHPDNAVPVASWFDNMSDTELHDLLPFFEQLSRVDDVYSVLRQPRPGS

[22] = P. falciparum 3D7-ScDHODH growth inhibitors, dose response, SYBR Green, dry powder samples (AID 1159570); format: functional, cell-based;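 further: parasite growth measured after 72 hours of compound exposure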
[23] = P. falciparum Dd2 growth inhibitors, dose response, SYBR Green, cherry-picked samples (AID 1159567); format: functional, cell-based
[24] = HepG2 cell cytotoxicity, dose response, cytotoxicity control, plate reader, dry powder samples (AID 1159569); format: functional, cell-based;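 further: inhibitor potency with signal falling toward the positive control level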
[25] = P. falciparum Dd2 growth inhibitors, dose response, SYBR Green, dry powder samples (AID 1159566); format: functional, cell-based;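 further: potency for growth inhibition with lower SYBR green DNA signal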
[26] = P. falciparum ATP4 D1247Y mutant growth inhibitors, dose response, NITD609-resistant line, SYBR Green, dry powder (AID 1159571); format: functional, cell-based;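 further: parasites synchronized at ring stage by sorbitol before testing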
[27] = biological target: T5, Alkaline phosphatase, tissue-nonspecific isozyme (Homo sapiens, UniProt P05186); experiment: human TNAP enzyme inhibitors, SAR follow-up, biochemical, luminescent, dose response (AID 1056)
T5 sequence (P05186 whole entry): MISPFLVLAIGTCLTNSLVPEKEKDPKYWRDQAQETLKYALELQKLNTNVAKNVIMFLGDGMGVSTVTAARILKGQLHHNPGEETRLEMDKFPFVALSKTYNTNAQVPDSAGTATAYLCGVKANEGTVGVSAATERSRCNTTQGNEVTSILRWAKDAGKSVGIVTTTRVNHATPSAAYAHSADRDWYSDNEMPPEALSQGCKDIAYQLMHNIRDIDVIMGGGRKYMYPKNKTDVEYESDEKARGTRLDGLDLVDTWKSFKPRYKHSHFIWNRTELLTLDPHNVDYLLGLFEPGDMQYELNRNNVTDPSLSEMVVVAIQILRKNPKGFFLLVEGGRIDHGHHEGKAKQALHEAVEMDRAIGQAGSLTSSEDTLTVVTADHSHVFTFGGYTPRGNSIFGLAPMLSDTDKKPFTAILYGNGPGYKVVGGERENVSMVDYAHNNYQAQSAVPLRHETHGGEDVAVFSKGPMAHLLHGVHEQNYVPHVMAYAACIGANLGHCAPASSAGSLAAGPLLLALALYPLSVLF

Sequence of Induced myeloid leukemia cell differentiation protein Mcl-1 (Q07820 whole entry): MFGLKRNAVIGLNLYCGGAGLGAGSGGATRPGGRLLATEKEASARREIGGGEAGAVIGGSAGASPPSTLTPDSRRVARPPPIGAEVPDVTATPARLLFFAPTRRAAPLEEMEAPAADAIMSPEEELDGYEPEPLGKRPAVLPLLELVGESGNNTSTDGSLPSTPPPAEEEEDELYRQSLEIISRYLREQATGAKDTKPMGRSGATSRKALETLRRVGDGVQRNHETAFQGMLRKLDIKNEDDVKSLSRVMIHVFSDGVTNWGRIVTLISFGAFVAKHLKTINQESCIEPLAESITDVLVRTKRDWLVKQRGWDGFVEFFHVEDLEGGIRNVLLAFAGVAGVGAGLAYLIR
Sequence of Voltage-dependent T-type calcium channel subunit alpha-1H (O95180 whole entry): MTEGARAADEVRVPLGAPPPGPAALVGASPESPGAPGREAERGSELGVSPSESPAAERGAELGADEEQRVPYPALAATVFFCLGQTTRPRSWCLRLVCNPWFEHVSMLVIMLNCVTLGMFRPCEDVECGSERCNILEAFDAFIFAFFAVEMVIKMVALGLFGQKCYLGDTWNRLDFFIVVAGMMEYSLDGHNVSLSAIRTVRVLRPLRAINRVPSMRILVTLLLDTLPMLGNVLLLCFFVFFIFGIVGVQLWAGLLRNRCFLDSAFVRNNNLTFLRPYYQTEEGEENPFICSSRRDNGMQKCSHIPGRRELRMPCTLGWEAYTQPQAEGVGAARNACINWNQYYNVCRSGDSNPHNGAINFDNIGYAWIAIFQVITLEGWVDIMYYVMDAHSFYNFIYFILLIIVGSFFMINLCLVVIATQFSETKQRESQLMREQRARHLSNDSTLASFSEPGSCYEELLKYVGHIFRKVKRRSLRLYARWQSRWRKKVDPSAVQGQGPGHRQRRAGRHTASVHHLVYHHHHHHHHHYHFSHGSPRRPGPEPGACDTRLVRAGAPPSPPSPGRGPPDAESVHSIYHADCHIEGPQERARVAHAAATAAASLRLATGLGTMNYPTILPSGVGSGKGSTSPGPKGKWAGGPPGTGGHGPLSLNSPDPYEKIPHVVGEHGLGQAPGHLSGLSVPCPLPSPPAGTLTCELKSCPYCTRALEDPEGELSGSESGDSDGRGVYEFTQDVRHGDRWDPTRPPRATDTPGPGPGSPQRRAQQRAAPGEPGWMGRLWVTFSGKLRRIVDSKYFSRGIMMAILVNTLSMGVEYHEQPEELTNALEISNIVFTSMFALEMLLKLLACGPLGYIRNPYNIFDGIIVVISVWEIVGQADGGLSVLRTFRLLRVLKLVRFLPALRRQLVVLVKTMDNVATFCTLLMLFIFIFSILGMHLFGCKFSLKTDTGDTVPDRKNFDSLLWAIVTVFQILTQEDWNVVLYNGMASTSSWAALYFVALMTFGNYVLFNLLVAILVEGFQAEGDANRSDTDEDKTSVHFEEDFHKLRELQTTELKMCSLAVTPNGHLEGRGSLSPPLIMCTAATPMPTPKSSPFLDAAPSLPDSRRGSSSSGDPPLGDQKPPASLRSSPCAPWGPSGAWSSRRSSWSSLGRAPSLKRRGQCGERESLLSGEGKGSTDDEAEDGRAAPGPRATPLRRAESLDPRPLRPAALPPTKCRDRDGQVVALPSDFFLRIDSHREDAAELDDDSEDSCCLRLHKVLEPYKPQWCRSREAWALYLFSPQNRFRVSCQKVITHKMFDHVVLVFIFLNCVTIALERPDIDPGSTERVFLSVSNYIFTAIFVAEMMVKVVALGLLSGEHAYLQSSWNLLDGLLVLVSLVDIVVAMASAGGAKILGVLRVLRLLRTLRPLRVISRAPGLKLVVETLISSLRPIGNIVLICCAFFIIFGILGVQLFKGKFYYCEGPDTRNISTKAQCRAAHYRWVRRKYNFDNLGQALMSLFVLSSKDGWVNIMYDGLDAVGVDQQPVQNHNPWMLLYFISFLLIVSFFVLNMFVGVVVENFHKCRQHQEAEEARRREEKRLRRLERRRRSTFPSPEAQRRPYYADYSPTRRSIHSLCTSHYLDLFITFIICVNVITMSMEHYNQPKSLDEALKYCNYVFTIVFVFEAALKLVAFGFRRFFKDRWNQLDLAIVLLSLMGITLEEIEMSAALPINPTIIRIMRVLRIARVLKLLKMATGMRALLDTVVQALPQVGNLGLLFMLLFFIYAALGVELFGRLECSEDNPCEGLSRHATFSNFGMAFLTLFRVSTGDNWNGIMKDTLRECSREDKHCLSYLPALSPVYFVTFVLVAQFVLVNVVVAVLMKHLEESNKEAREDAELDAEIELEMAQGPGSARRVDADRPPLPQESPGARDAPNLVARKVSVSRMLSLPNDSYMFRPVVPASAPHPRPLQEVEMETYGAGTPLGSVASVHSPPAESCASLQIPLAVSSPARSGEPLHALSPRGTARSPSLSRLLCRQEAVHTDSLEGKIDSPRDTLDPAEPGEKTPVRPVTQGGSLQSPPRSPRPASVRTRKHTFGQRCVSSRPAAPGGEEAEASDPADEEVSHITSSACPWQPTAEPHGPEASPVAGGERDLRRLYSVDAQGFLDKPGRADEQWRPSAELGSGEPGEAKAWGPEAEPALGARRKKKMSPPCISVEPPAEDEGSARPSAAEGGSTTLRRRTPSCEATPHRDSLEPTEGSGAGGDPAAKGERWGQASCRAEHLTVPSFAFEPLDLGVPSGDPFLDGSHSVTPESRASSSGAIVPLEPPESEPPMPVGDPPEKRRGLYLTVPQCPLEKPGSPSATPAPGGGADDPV
T3 sequence (Q79MP6 whole entry): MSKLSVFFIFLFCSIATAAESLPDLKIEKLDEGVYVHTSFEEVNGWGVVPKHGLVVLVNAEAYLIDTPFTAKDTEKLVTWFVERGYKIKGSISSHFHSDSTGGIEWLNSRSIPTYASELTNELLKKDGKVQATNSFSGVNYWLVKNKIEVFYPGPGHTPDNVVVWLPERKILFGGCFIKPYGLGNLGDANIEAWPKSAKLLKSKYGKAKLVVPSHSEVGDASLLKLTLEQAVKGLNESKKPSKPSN
T2 sequence (P98170 whole entry): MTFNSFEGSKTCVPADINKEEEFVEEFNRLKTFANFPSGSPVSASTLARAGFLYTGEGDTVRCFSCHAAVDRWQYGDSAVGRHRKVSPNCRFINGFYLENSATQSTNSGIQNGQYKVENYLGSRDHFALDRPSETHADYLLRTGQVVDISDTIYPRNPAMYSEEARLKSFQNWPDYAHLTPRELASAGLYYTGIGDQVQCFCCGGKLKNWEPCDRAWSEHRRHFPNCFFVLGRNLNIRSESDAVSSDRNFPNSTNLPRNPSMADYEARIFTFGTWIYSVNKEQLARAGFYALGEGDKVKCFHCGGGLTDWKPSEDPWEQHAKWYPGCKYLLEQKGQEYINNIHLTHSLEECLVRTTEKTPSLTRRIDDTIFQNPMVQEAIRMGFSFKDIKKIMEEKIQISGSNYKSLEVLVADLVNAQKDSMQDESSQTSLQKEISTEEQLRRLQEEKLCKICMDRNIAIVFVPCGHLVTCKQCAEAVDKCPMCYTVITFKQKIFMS
Sequence of Nonstructural protein 1 (Q194T2 whole entry): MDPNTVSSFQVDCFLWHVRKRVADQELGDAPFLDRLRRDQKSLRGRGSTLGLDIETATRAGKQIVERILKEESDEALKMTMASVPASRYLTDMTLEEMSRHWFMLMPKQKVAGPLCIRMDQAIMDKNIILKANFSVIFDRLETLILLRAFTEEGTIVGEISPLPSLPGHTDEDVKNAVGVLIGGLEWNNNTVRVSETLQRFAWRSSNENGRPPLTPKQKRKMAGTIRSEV
Sequence of Beta-lactamase (Salmonella choleraesuis (strain SC-B67), UniProt Q5J463) (Q5J463 whole entry): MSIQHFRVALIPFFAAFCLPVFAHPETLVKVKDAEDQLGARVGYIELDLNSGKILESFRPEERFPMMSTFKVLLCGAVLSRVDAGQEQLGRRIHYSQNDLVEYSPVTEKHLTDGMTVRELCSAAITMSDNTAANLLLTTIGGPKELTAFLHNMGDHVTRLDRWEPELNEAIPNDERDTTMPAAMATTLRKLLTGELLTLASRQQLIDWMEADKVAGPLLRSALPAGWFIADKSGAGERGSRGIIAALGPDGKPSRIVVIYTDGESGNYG
Sequence of E3 ubiquitin-protein ligase Mdm2 (Q00987 whole entry): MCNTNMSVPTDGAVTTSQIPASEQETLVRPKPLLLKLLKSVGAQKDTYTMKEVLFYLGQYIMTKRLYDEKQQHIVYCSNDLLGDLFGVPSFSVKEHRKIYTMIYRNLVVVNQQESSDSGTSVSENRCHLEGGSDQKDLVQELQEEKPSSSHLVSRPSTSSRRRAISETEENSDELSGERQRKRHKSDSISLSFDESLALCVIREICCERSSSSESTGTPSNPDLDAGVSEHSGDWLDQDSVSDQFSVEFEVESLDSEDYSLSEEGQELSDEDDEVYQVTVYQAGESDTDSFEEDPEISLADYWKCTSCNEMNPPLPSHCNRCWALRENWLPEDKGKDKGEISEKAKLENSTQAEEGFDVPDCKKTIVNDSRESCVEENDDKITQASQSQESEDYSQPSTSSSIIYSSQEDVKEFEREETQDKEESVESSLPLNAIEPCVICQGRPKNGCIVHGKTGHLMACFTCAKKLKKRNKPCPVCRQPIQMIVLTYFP

SMILES: Cc1ccccc1NC(=O)CSc1nc(O)cc(C)c1C#N
- IC50 (Leucine aminopeptidase): 10.9 µM (active)

SMILES: CCn1c(=O)cc(OCC(=O)NCCC(C)C)c2ccccc21
- IC50 [1]: > 100 µM (inactive)
- IC50 [2]: > 100 µM (not active)

SMILES: O=c1c2ccccc2nc(CN2CCCCCC2)n1-c1ccc(F)cc1
- AC50 [3]: 10.1 µM (active)
- AC50 [4]: 50.6 µM (active)
- AC50 [5]: 30.2 µM (active)
- AC50 [6]: 20.9 µM (active)

SMILES: CCC12CN3CCN(CC(C3)C1O)C2 (stereo not given)
- IC50 [1]: > 100 µM (inactive)
- IC50 [2]: > 100 µM (not active)

SMILES: Cc1cccc(NC(=O)CSc2nnc(NC(=O)CN3CCOCC3)s2)c1
- IC50 (Leucine aminopeptidase): 14 µM (active)

SMILES: O=C(Nc1ccc2c(c1)OCO2)C1CCN(Cc2cnn(-c3ccccc3)c2-n2cccc2)CC1
- EC50 [7]: 5.88 µM (active)

SMILES: Cc1cccc(C2c3[nH]c4ccccc4c3CCN2C(=O)c2cc(CC(C)C)nc(=O)[nH]2)n1 (stereo not given)
- IC50 (Beta-lactamase [8]): > 59.6 µM (inactive)
- IC50 (Beta-lactamase [9]): > 59.6 µM (inactive)
- IC50 (Beta-lactamase [10]): > 59.6 µM (inactive)

SMILES: CCOC(=O)c1c(NC(C)=O)sc2c(O)c(Br)cc(Br)c12
- IC50 [11]: 4.76 µM (active)
- IC50 (Large T antigen): 56.7 µM (active)

SMILES: Cc1ccc(-c2nc(NC(=O)CSc3ccc4ccccc4n3)ns2)cc1
- IC50 [1]: > 100 µM (inactive)
- IC50 [2]: > 100 µM (not active)

SMILES: Cc1oc(-c2ccccc2)nc1Cn1cccc1C1=NC(c2ccccc2)CO1 (stereo not given)
- EC50 [7]: 7.51 µM (active)

SMILES: CCSc1nc2ccccc2n1C(=O)/C=C\c1ccc(OC)c(OC)c1
- EC50 (BJ [12]): 8.04 µM (active)
- EC50 (BJ [13]): 5.15 µM (inconclusive)
- EC50 (BJ [14]): 4.41 µM (inconclusive)
- IC50 [15]: > 80 µM (inactive)
- EC50 [16]: 0.24 µM (active)
- EC50 [17]: 4.6 µM (inconclusive)

SMILES: Cc1ccc(Cl)cc1N1CCN(Cc2nnnn2Cc2ccco2)CC1
- EC50 [7]: 0.633 µM (active)

SMILES: CCOc1c(C)cnc2c1c(=O)n(Cc1ccc(Cl)cc1)c(=O)n2C
- AC50 [3]: 12.5 µM (active)
- AC50 [4]: 8.07 µM (active)
- AC50 [5]: 12.1 µM (active)
- AC50 [6]: 7.77 µM (active)

SMILES: Cc1cccc(Nc2nnc(SCC3CCCCO3)s2)c1C (stereo not given)
- EC50 [16]: 12.4 µM (not active)

SMILES: COC(=O)c1ccc(Cl)c(NC(=O)CSc2nnc[nH]2)c1
- IC50 (Leucine aminopeptidase): 35.1 µM (active)

SMILES: COc1ccc(C2=NS(=O)(=O)N(C)C(C(=O)Nc3ccc4c(c3)OCO4)=C2)cc1OC
- IC50 (Nonstructural protein 1): > 100 µM (active)

SMILES: CCC1(C(=O)OC)CCc2c(cc(OC)c3ccccc23)C1=O (stereo not given)
- IC50 [11]: > 54 µM (not active)

SMILES: Cn1c(-c2sccc2OCc2ccc(Cl)cc2Cl)n[nH]c1=S
- IC50 (Beta-lactamase [8]): > 59.6 µM (inactive)
- IC50 (Beta-lactamase [9]): > 59.6 µM (inactive)
- IC50 (Beta-lactamase [10]): > 59.6 µM (inactive)

SMILES: CC1CCN(S(=O)(=O)c2ccc(NN=C(C#N)C#N)cc2)CC1
- EC50 [7]: 1.52 µM (active)

SMILES: CCCCCn1c(=O)c(C(=O)NCc2ccncc2)c(O)c2ccccc21
- EC50 [18]: > 150 µM (inactive)
- CC50 [19]: 14.7 µM (active)
- EC50 [20]: > 38 µM (not active)

SMILES: COc1ccc(NC(=O)C(=O)NCC2CCCN2S(=O)(=O)c2cccs2)cc1 (stereo not given)
- AC50 [3]: > 70 µM (inactive)
- IC50 [15]: > 80 µM (inactive)

SMILES: O=c1/c(=C/c2ccc(O)c([N+](=O)[O-])c2)sc2nc3ccccc3n12
- IC50 [21]: 1.83 µM (active)
- IC50 [11]: 3.94 µM (active)

SMILES: COc1ccccc1-c1cccc(-c2nc(C(=O)Nc3nccs3)cc3c2[C@H](CCO)N(C(C)=O)C3)c1
- AC50 [22]: 3.93 µM (active)
- AC50 [23]: 2.15 µM (active)
- AC50 [24]: 66.8 µM (active)
- AC50 [25]: 2.08 µM (active)
- AC50 [26]: 1.96 µM (active)

SMILES: C/C(=N\NC(=O)c1ccccc1O)c1ccc(Br)s1
- CC50 [19]: 24.4 µM (active)

SMILES: COc1cc(/C=N/Nc2cc(C)nc(NS(=O)(=O)c3ccc(C)cc3)n2)ccc1O
- IC50 [1]: > 100 µM (inactive)
- IC50 [2]: > 100 µM (not active)

SMILES: Cc1cc(C)nc(N/N=C/c2c(CO)cnc(C)c2O)n1
- IC50 (Nonstructural protein 1): 20.2 µM (active)

SMILES: O=C(c1cccc(F)c1)N1CC(=O)N2[C@H](CO)[C@H](c3ccc(-c4cccnc4)cc3)[C@H]2C1
- AC50 [22]: 0.198 µM (active)
- AC50 [23]: 0.326 µM (active)
- AC50 [24]: > 100 µM (inactive)
- AC50 [25]: 0.133 µM (active)
- AC50 [26]: 0.186 µM (active)

SMILES: O=C(Nc1ccc(C(F)(F)F)cc1)N1[C@@H]2CNC[C@H]1[C@H]2c1ccc(/C=C/c2ccccc2)cc1
- AC50 [22]: 1.76 µM (active)
- AC50 [23]: 2.46 µM (active)
- AC50 [24]: 66.2 µM (active)
- AC50 [25]: 1.4 µM (active)
- AC50 [26]: 1.52 µM (active)

SMILES: Cc1cc(C)nc(NCc2ccc(O)c(O)c2)n1
- IC50 [27]: 27 µM (active)
